Measured values as given in BindingDB's records for doi:10.1021/acs.jmedchem.7b00155 (University of Bari Aldo Moro, 2017).

Target: Cannabinoid receptor 1 (Homo sapiens, UniProt P21554)
Assay: ChEBML_1680109
Source text: Agonist activity at human CB1 receptor expressed in mouse AtT-20 cells co expressing GIRK by FLIPR assay

Chain of Cannabinoid receptor 1 (P21554 whole entry): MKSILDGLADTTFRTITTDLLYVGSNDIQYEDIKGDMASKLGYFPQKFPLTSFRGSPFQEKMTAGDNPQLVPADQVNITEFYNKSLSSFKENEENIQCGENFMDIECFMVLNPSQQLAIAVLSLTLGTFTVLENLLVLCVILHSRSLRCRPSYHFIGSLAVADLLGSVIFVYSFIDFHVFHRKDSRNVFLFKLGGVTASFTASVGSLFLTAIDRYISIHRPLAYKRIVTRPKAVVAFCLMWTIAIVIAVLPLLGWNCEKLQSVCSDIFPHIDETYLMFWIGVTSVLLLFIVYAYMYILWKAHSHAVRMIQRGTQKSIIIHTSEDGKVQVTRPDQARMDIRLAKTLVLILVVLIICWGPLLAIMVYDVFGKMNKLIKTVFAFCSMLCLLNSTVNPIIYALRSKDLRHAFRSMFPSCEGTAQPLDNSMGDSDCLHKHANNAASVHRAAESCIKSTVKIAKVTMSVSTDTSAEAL

CC(C)[C@H](NC(=O)c1nn(Cc2ccc(F)cc2)c2ccccc12)C(N)=O
EC50: 2.1 nM
